Test results taken from publication PMC8669712, “G Protein-Coupled Receptor GPR35 Suppresses Lipid Accumulation in Hepatocytes” (ACS Pharmacology & Translational Science, 2021).
“And” between values parts separate entries of the source, which are not always exact repeats. Equal values may be shown once. Read-outs that look alike come from different tables or passages of the source. Each block holds one molecule with its values, some of them ahead of it. *1 amine or outer side, *2 acyl side, *3 side chain or, on linkers, in order; H or OH if unused. Where a SMILES comes first, the peptide text is derived from it. Bridges are numbered along the chain shown (N, C = ends). [ ]: non-standard residue; d: D form. The star is where a group is joined. Leu(3R-OH,Nα-propionyl) = CCC(=O)N[C@H](C(=O)*)[C@H](O)C(C)C; X1 = CC(C)[C@@H](O[*:3])[C@H](N[*:1])C(=O)[*:2]; NMeT = CN[C@H](C(=O)O)[C@@H](C)O; dPhLac = O=C(O)[C@H](O)Cc1ccccc1; NMeA = CN[C@@H](C)C(=O)O; NMeDha = C=C(NC)C(=O)O

Experiments:
HepG2 cells = assay: Label-free cellular impedance assay (xCELLigence) in HepG2 cells; assay type: cell-based, human; details: for effect of signaling pathway inhibitor pretreatment on the impedance response to lodoxamide: HepG2 cells, FR900359 1 × 10^–7 M, Pertussis toxin 100 ng/mL, Y27632 1 × 10^–5 M
Method: HepG2 cells were seeded onto xCELLigence E plates (2 × 10^4 cells/well) and incubated for 24 h at 37 °C. To evaluate GPR35 activation and its downstream G protein signaling, HepG2 cells or primary mouse hepatocytes were exposed to GPR35 antagonists or G protein inhibitors 1 h (overnight for Pertussis toxin) prior to GPR35 agonist stimulation. After the addition of GPR35 agonist or vehicle control, the impedance (represented as “cell index”) was recorded every 30 s over a 2 h period using xCELLigence RTCA (Agilent). Each experiment was repeated at least three times.

[1] = test system: GPR35 genome-edited HepG2 clones; assay: Label-free cellular impedance assay in GPR35 genome-edited HepG2 clones 19 and 27; assay type: cell-based, human
Excerpt: Expression of full-length mRNA from the GPR35 gene was eliminated using a dual synthetic gRNA/RNP approach[43] with one guide cutting the intron and one in the exon region to generate a nonfunctional GPR35 protein. The gRNAs were designed with the CRISPR Finder (Welcome Sanger Institute). HepG2 cells were transfected with the Neon Transfection System from Thermo Fisher Scientific (Waltham, MA), according to the manufacturer’s instructions. Briefly, CrRNA and tracrRNA were annealed to gRNA at 95 °C for 5 min. Next, cells were transfected with gRNA, Cas9, and the electroporation enhancer, according to the manufacturer’s instructions. All crRNAs, tracrRNA, SpCas9 nuclease, and the electroporation enhancer were purchased from Integrated DNA Technologies (Coralville, IA). Transfected cells were plated and analyzed for editing efficiency 24–48 h after electroporation. Single-cell clones were generated by single-cell FACS sorting. Clones were expanded and to access editing efficiency, genomic DNA from cell clones was extracted and subjected to PCR to confirm the genome deletion. To further quantify and capture the genomic DNA deletion, PCR primers listed in Table S1 were designed to amplify the genomic DNA surrounding the target site. The PCR primers were linked to the sequences of the Illumina Nextera adapters. The amplified PCR products were subjected to paired-end sequencing using NextSeq500 from Illumina using paired-end chemistry with a 150-bp read length. In addition, mRNA from KO clones was isolated and subjected to RT-PCR. To further confirm the abrogation of GPR35 activation in CRISPR KO clones, KO cells were seeded onto xCELLigence E plates (2 × 10^4 cells/well) for 24 h at 37 °C prior to the treatment of GPR35 agonists. The impedance was recorded using xCELLigence RTCA. […]
HepG2 cells were seeded onto xCELLigence E plates (2 × 10^4 cells/well) and incubated for 24 h at 37 °C. […] After the addition of GPR35 agonist or vehicle control, the impedance (represented as “cell index”) was recorded every 30 s over a 2 h period using xCELLigence RTCA (Agilent). […]

mouse GPR35 = mouse GPR35 (Mus musculus, UniProt Q9ES90); assay: β-arrestin-based interaction assay, agonist potency at mouse GPR35; assay type: cell-based
mouse GPR35, sequence (Q9ES90 whole entry): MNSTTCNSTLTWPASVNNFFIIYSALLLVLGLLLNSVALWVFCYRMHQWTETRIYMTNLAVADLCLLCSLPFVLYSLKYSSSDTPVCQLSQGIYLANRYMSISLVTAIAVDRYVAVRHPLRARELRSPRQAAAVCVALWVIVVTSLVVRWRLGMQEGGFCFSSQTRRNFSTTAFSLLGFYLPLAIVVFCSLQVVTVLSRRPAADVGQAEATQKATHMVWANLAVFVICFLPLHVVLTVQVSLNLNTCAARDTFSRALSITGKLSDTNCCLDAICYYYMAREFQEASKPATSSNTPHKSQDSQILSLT

[2] = test system: hepatocytes from GPR35 knock-out mice; assay: Oil Red O lipid accumulation in hepatocytes from GPR35 knock-out mice; details: treatment for 5 days
Method: (§1) All mice were bred as WT or homozygous onto a C57BL/6N background. Animals were cared for in accordance with national guidelines on animal experimentation. All animal experiments were conducted under a home office license held by the authors. WT, humanized GPR35a, or KO male mice at 3–4 months of age were used in this study. These mice were fed ad libitum with a standard mouse chow diet. Briefly, mouse primary hepatocytes were isolated using a two-step collagenase perfusion technique.[45] Twelve-well plates or xCELLigence E plates were coated with rat tail collagen I solution (Thermo Fisher Scientific) overnight at 37 °C and washed with PBS. […] After each drug treatment, hepatocytes were stained with Oil Red O and quantified as described. […]
(§2) Lipid accumulation was measured by Oil Red O staining. […] After PBS washing, Oil Red O was extracted from cells using 150 μl of isopropanol and OD510 nm measured. […] These cells were then stained with Hoechst 33342 (1 μg/mL) and the fluorescence intensity of Hoechst (represents the DNA content in cells) was measured using a CLARIOstar plate reader (BMG LABTECH). Oil Red O accumulation was corrected for differences in DNA content and expressed as relative absorbency, taking the control condition (treated with vehicle only) as 1.

[3] = test system: hepatocytes from wild-type mice; assay: Oil Red O lipid accumulation in hepatocytes from wild-type mice; assay type: cell-based, mouse; details: 48 h, hepatocytes from wild-type mice, co-incubation with T0901317 5 × 10^–6 M, read-out: EC50 for suppression of LXR-mediated lipid accumulation
Method: as §1, with “PBS. Isolated primary hepatocytes were seeded onto 12-well plates (8 × 10^4 cells/well) or xCELLigence E plates (2 × 10^4 cells/well) in Wiliam’s E medium (Thermo Fisher Scientific) supplemented with 10% fetal bovine serum (FBS) and 1× penicillin/streptomycin. Cells were maintained for 7 days with a fresh medium change every other day. […] Human GPR35 activation was examined using xCELLigence RTCA assay. To access the impact of GPR35 agonists on the lipid accumulation, WT and humanized GPR35 hepatocytes were incubated with T0901317 and/or GPR35 agonists/antagonists, as indicated (in DMEM medium containing 5% FBS and 1.5% BSA) for 48 h. Alternatively, GPR35 KO hepatocytes were incubated with drugs, as indicated for 5 days.” for “PBS.”
as §2

human GPR35a = human GPR35a (Homo sapiens, UniProt Q9HC97); assay: β-arrestin-based interaction assay, agonist potency at human GPR35a; assay type: cell-based
human GPR35a, sequence (Q9HC97 whole entry): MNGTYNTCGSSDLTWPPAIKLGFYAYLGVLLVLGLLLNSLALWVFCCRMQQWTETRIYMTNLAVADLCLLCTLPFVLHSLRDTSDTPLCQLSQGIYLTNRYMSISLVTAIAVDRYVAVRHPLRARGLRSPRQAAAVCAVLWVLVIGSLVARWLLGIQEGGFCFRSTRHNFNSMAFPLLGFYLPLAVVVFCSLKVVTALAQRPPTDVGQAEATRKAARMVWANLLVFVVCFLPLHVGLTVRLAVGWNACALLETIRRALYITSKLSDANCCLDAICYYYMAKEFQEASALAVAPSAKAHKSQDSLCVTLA

Molecule: C=C1C(=O)N[C@@H](C)C(=O)N(C)[C@@H](C)C(=O)N[C@@H]([C@H](OC(=O)[C@@H](NC(=O)CC)[C@H](O)C(C)C)C(C)C)C(=O)N(C)[C@@H]([C@@H](C)OC)C(=O)O[C@H](C(C)C)[C@H](NC(C)=O)C(=O)O[C@H](Cc2ccccc2)C(=O)N1C [FR900359] (Ac-[X1][dPhLac][NMeDha]A[NMeA][X1](Leu(3R-OH,Nα-propionyl))[NMeT](Me); ester 1-C)
- effect of signaling pathway inhibitor pretreatment on the impedance response to lodoxamide (HepG2 cells): without effect

Molecule: C[C@@H](N)[C@H]1CC[C@H](C(=O)Nc2ccncc2)CC1 [Y27632]
- effect of signaling pathway inhibitor pretreatment on the impedance response to lodoxamide (HepG2 cells): all but eliminated

Molecule: Nc1ncnc2c1ncn2[C@@H]1O[C@H](COP(=O)(O)OP(=O)(O)OP(=O)(O)O)[C@@H](O)[C@H]1O [ATP]
- impedance response to ATP in wild-type HepG2 cells and GPR35 genome-edited clones ([1]; P2Y purinoceptor stimulus, control of responsiveness): enhanced electrical conductance

- fold more potent than lodoxamide at mouse GPR35 (mouse GPR35; bufrolin versus lodoxamide): more than 10 fold
- fold lower potency at mouse GPR35 than at human GPR35 (mouse GPR35; mouse versus human GPR35): ~10 fold
- EC50 (mouse GPR35; read-out: EC50 at the mouse GPR35): < 100 nM
- EC50 (mouse GPR35; β-arrestin-based interaction assay, read-out: mouse GPR35, pEC50 (converted)): 155 nM
- suppression of lipid accumulation induced by T0901317 in hepatocytes from GPR35 knock-out mice [2]: did not suppress lipid accumulation
- ratio (log) (H/M) (human GPR35a; log ratio of potency at human GPR35a over mouse GPR35): 1.02 ± 0.06
- EC50 (human GPR35a; β-arrestin-based interaction assay, read-out: human GPR35a, pEC50 (converted)): 14.8 nM
Molecule: CCCCc1cc2c(=O)cc(C(=O)O)[nH]c2c2c(=O)cc(C(=O)O)[nH]c12 [bufrolin, 6-butyl-4,10-dioxo-1,7-dihydro-1,7-phenanthroline-2,8-dicarboxylic acid]
- EC50 ([3]; Mus musculus, Hepatocyte): 78.7 nM
- EC50 [3]: 79 nM and ~80 nM

Molecule: Pertussis toxin
- effect of signaling pathway inhibitor pretreatment on the impedance response to lodoxamide (HepG2 cells): small although a statistically nonsignificant reduction

Molecule: CCCOc1ccccc1-c1nc2nn[nH]c2c(=O)[nH]1 [zaprinast]
- impedance signal in parental HepG2 cells (HepG2 cells; 1 × 10^–5 M): produced positive signals
- impedance signal in GPR35 genome-edited clones 19 and 27 ([1]; 1 × 10^–5 M): not in either clone 19 or 27
- EC50 (mouse GPR35): 661 nM
